The values that follow come from patent publication US20110237592A1, “SUBSTITUTED AMIDO PHENOXYBENZAMIDES” (BAYER SCHERING PHARMA AKTIENGESELLSCHAFT, priority 2008, published 2011).

Test [1] deals with A375 cells. Nature of the test: A375 proliferation crystal violet (CV) assay. The format is cell-based. Particulars: Homo sapiens, A-375, 96 h, crystal violet staining, 4 days. On the procedure:
Alternatively, the cell proliferation was measured by crystal violet (CV) staining: Assay 7
Cultivated human A375 cells were plated out in a density of 1500 cells/measurement point in 200 μl of growth medium (DMEM/HAMS F12 (Biochrom; FG4815) with 10% FBS and 2 mM Glutamine) in a 96-well multititer plate. After 24 hours, the cells from a plate (zero plate) were stained with crystal violet (see below), while the medium in the other plates was replaced by fresh culture medium (200 μl) to which the test substances had been added in various concentrations (0 μM, and in the range 0.3 nM-30 μM; the final concentration of the solvent dimethyl sulphoxide was 0.5%). The cells were incubated in the presence of the test substances for 4 days. The cell proliferation was determined by staining the cells with crystal violet: the cells were fixed by adding 20 μl/measurement point of an 11% glutaraldehyde solution at room temperature for 15 min. After the fixed cells had been washed three times with water, the plates were dried at room temperature. The cells were stained by adding 100 μl/measurement point of a 0.1% crystal violet solution (pH adjusted to pH 3 by adding acetic acid). After the stained cells had been washed three times with water, the plates were dried at room temperature. The dye was dissolved by adding 100 μl/measurement point of a 10% acetic acid solution, and the extinction was determined by photometry at a wavelength of 595 nm. The percentage change in cell growth was calculated by normalizing the measurements to the extinctions of the zero point plate (=0%) and the extinction of the untreated (0 μM) cells (=100%). The IC50 values were determined by means of a 4-parameter fit using the company's own software.

Test [2] addresses T1, MEK1 (Homo sapiens, UniProt Q02750).
T1 construct: purchased Millipore 14-420
Nature of the test: MEK1 activation kinase assay (Cot1, HTRF). In kind it is biochemical. The settings on record: inhibition of Cot1-mediated activation of GST-MEK1, HTRF. From the text: The kinase Cot1 activates MEK1 by phosphorylating its activation loop. The inhibitory activity of compounds of the present invention on this activation of MEK1 was quantified employing the HTRF assay described in the following paragraphs.
N-terminally His6-tagged recombinant kinase domain of the human Cot1 (amino acids 30-397, purchased from Millipore, cat. no 14-703) expressed in insect cells (SF21) and purified by Ni-NTA affinity chromatography was used as kinase. As substrate for the kinase reaction the unactive C-terminally His6-tagged GST-MEK1 fusion protein (Millipore cat. no 14-420) was used.
For the assay 50 nl of a 100 fold concentrated solution of the test compound in DMSO was pipetted into a black low volume 384 well microtiter plate (Greiner Bio-One, Frickenhausen, Germany), 3 μl of a solution of 24 nM GST-MEK1 and 166.7 μM adenosine-tri-phosphate (ATP) in assay buffer [50 mM Tris/HCl pH 7.5, 10 mM MgCl2, 2 mM dithiothreitol, 0.01% (v/v) Igepal CA 630 (Sigma), 5 mM β-phospho-glycerol] were added and the mixture was incubated for 10 min at 22° C. to allow pre-binding of the test compounds to the GST-MEK1 before the start of the kinase reaction. Then the kinase reaction was started by the addition of 2 μl of a solution of Cot1 in assay buffer and the resulting mixture was incubated for a reaction time of 20 min at 22° C. […]
The resulting mixture was incubated 2 h at 22° C. to allow the binding of the phosphorylated GST-MEK1 to the anti-GST-XL665 and the Eu-cryptate labelled anti-phospho-MEK 1/2 antibody. Subsequently the amount of Ser217/Ser221-phosphorylated substrate was evaluated by measurement of the resonance energy transfer from the Eu-Cryptate-labelled anti-phospho-MEK antibody to the anti-GST-XL665. Therefore, the fluorescence emissions at 620 nm and 665 nm after excitation at 350 nm was measured in a HTRF reader, e.g. a Rubystar (BMG Labtechnologies, Offenburg, Germany) or a Viewlux (Perkin-Elmer). […]
In general terms: TR-FRET usually uses a lanthanide donor and a delayed reading to cut background.

The subject of test [3] is MEK1/2. Particulars: background statement, ref. [17]; cited from earlier work.
For test [4], the system named is colon cancer. Particulars: oral treatment, mouse models, ref. [18]; cited from earlier work.
The mark [5] stands for this setting: currently preferred example compounds.

T1 sequence (Q02750 whole entry): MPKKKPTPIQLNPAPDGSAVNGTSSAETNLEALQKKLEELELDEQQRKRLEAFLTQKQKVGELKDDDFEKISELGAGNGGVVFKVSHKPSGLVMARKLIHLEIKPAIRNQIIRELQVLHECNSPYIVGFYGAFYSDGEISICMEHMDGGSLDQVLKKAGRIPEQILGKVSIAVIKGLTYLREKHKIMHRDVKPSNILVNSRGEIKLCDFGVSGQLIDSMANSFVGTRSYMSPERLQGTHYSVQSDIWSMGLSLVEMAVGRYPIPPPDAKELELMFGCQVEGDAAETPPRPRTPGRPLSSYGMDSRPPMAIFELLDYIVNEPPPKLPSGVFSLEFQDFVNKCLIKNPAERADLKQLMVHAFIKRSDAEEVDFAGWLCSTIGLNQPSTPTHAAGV

Usually IC50 stands for the concentration that inhibits the measured activity by half. As for `NC(=O)c1c(Nc2ccc(I)cc2F)cc(F)cc1Oc1cccc(NC(=O)C2CCOCC2)c1` [Example 3.5, Tetrahydro-pyran-4-carboxylic acid {3-[2-carbamoyl-5-fluoro-3-(2-fluoro-4-iodo-phenylamino)-phenoxy]-phenyl}-amide], the IC50 in test [1] (setting [5]) was below 100 nM.

As for `CSCC(=O)Nc1cccc(Oc2cc(F)cc(Nc3ccc(I)cc3F)c2C(N)=O)c1` [Example 3.3, 4-Fluoro-2-(2-fluoro-4-iodo-phenylamino)-6-[3-(2-methylsulfanyl-acetylamino)-phenoxy]-benzamide], the IC50 in test [1] (setting [5]) is below 100 nM.

On to `COCC(=O)Nc1cccc(Oc2cc(F)cc(Nc3ccc(I)cc3F)c2C(N)=O)c1` [Example 3.2, 4-Fluoro-2-(2-fluoro-4-iodo-phenylamino)-6-[3-(2-methoxy-acetylamino)-phenoxy]-benzamide], for which the IC50 in test [1] (setting [5]) was below 100 nM.

With `NC(=O)c1c(Nc2ccc(I)cc2F)cc(F)cc1Oc1cccc(NC(=O)CO)c1` [Example 3.1, 4-Fluoro-2-(2-fluoro-4-iodo-phenylamino)-6-[3-(2-hydroxy-acetylamino)-phenoxy]-benzamide], the IC50 in test [1] (setting [5]) was below 100 nM.

In turn, `NC(=O)c1c(Nc2ccc(I)cc2F)cc(F)cc1Oc1cccc(NC(=O)C(F)(F)F)c1` [Example 5.1, 4-Fluoro-2-(2-fluoro-4-iodo-phenylamino)-6-[3-(2,2,2-trifluoro-acetylamino)-phenoxy]-benzamide] came in with an IC50 in test [1] below 1000 nM.

In test [2], `CN1CCC(C(=O)Nc2cccc(Oc3cc(F)cc(Nc4ccc(I)cc4F)c3C(N)=O)c2)CC1` [Example 3.17, 1-Methyl-piperidine-4-carboxylic acid {3-[2-carbamoyl-5-fluoro-3-(2-fluoro-4-iodo-phenylamino)-phenoxy]-phenyl}-amide] came in with an IC50 below 100 nM.

As to `CC(O)C(=O)Nc1cccc(Oc2cc(F)cc(Nc3ccc(I)cc3F)c2C(N)=O)c1` (stereo not drawn) [Example 3.6, 4-Fluoro-2-(2-fluoro-4-iodo-phenylamino)-6-[3-(2-hydroxy-propionylamino)-phenoxy]-benzamide], in test [1] (setting [5]), the IC50 is below 100 nM.

Take `O=C(NOCC1CC1)c1ccc(F)c(F)c1Nc1ccc(I)cc1Cl` [CI-1040]: the IC50 result in test [3] is recorded as “low nanomolar range”. Moreover, the “colon cancer growth in vivo” value in test [4] is listed as “inhibit colon cancer growth in vivo”.

With `NC(=O)c1c(Nc2ccc(I)cc2F)cc(F)cc1Oc1ccc2oc(=O)[nH]c2c1` [Example 4.1, 4-Fluoro-2-(2-fluoro-4-iodo-phenylamino)-6-(2-oxo-2,3-dihydro-benzooxazol-5-yloxy)-benzamide], the IC50 in test [2] and in test [1] (setting [5]) was below 100 nM in each case.

In turn, `NC(=O)c1c(Nc2ccc(I)cc2F)cc(F)cc1Oc1cccc(NC(=O)CN2CCOCC2)c1` [Example 3.7, 4-Fluoro-2-(2-fluoro-4-iodo-phenylamino)-6-[3-(2-morpholin-4-yl-acetylamino)-phenoxy]-benzamide] gave an IC50 in test [1] (setting [5]) below 100 nM.

As for `CC(C)(O)C(=O)Nc1cccc(Oc2cc(F)cc(Nc3ccc(I)cc3F)c2C(N)=O)c1` [Example 1.1, 4-Fluoro-2-(2-fluoro-4-iodo-phenylamino)-6-[3-(2-hydroxy-2-methylpropionylamino)-phenoxy]-benzamide], the figures for the IC50 in test [2], in test [1] and in test [1] (setting [5]) were below 100 nM, below 1000 nM and below 100 nM, respectively.
